Values of other authors, collected in PMC12039075 (Structure (London, England : 1993), 2022).

Test system: human nicotinic receptor (HNR) α4/β2 subunit

## CN1CCC[C@H]1c1cccnc1 [nicotine]
  published affinity range: 0.6 to 10 nM
